Measured values: ChEMBL document CHEMBL1155332 (Bioorg Med Chem Lett, 2009)

What was measured:
Assay type in all cases: ADME, organism-based
[1] = Cmax in squirrel monkey at 2 mg/kg; parameters: dose 2 mg/kg; conditions: saimiri, in vivo
[2] = Bioavailability in […] rat; conditions: in vivo
[3] = Clearance in iv dosed rat; conditions: in vivo
[4] = Cmax in squirrel monkey at 10 mg/kg; parameters: dose 10 mg/kg; conditions: saimiri, in vivo
[5] = Cmax in squirrel monkey at 0.4 mg/kg; parameters: dose 0.4 mg/kg; conditions: saimiri, in vivo

Cmax [1] | bioavailability [2] | clearance [3] | Cmax [4] | Cmax [5] | Structure (SMILES)
1900 nM | 99% | 3 mL/min/kg | – | – | CC(C)(c1cc(-c2cccc(CC(F)(c3ccc(S(C)(=O)=O)cc3)S(=O)(=O)C3CC3)c2)c2ncccc2c1)S(C)(=O)=O (single isomer, unassigned; Enantio B)
– | 100% | 7 mL/min/kg | 3800 nM | – | Cc1noc(/C(=C/c2cccc(-c3cc(C(C)(C)S(C)(=O)=O)cc4cccnc34)c2)c2ccc(S(C)(=O)=O)cc2)n1
– | 84% | 17 mL/min/kg | – | – | CC(C)(O)C(F)(Cc1cccc(-c2cc(C(C)(C)S(C)(=O)=O)cc3cccnc23)c1)c1ccc(S(C)(=O)=O)cc1 (centres undefined)
– | 36% | 9 mL/min/kg | – | – | CC(C)(c1cc(-c2cccc(CC(F)(c3ccc(S(C)(=O)=O)cc3)S(=O)(=O)C3CC3)c2)c2ncccc2c1)S(C)(=O)=O.Cl (single isomer, unassigned)
– | 99% | 38 mL/min/kg | – | 100 nM | CC(C)(c1cc(-c2cccc(CC(F)(c3ccc(S(C)(=O)=O)cc3)C(O)(C3CC3)C3CC3)c2)c2ncccc2c1)S(C)(=O)=O (single isomer, unassigned; Enantio B)
– | 69% | 11 mL/min/kg | – | – | CC(C)(c1cc(-c2cccc(CC(F)(c3ccc(S(C)(=O)=O)cc3)C(O)(C3CC3)C3CC3)c2)c2ncccc2c1)S(C)(=O)=O.Cl (single isomer, unassigned)
– | 21% | 50 mL/min/kg | – | – | CC(C)(O)C(Cc1cccc(-c2cc(C(C)(C)S(C)(=O)=O)cc3cccnc23)c1)c1ccc(S(C)(=O)=O)cc1 (centres undefined)
– | 9% | 51 mL/min/kg | – | – | CC(C)(c1cc(-c2cccc(CC(CO)c3ccc(S(C)(=O)=O)cc3)c2)c2ncccc2c1)S(C)(=O)=O (centres undefined)
– | 1% | 76 mL/min/kg | – | – | CC(C)(c1cc(-c2cccc(CC(c3ccc(S(C)(=O)=O)cc3)S(C)(=O)=O)c2)c2ncccc2c1)S(C)(=O)=O (centres undefined)
– | 99% | 8 mL/min/kg | – | – | CC(C)(c1cc(-c2cccc(CC(F)(c3ccc(S(C)(=O)=O)cc3)C(O)(C3CC3)C3CC3)c2)c2ncccc2c1)S(C)(=O)=O.CCl (centres undefined)
– | 53% | 9 mL/min/kg | – | – | CC(C)(c1cc(-c2cccc(CC(F)(c3ccc(S(C)(=O)=O)cc3)S(C)(=O)=O)c2)c2ncccc2c1)S(C)(=O)=O (centres undefined)

Structure (SMILES) | Cmax [1] | bioavailability [2] | clearance [3] | Cmax [4] | Cmax [5]
COP(=O)(OC)C(Cc1cccc(-c2cc(C(C)(C)S(C)(=O)=O)cc3cccnc23)c1)c1ccc(S(C)(=O)=O)cc1 (centres undefined) | – | 3% | 48 mL/min/kg | – | –
COP(=O)(OC)C(F)(Cc1cccc(-c2cc(C(C)(C)S(C)(=O)=O)cc3cccnc23)c1)c1ccc(S(C)(=O)=O)cc1 (centres undefined) | – | 51% | 177 mL/min/kg | – | –
